target: T1, yeast HSP90 (Saccharomyces cerevisiae, UniProt P02829); experiment: Malachite green ATPase assay; assay type: biochemical; details: activity range
T1 construct: made in house; host or cells: E. coli
From the text: The intrinsic ATPase activity of HSP90 may be measured using yeast HSP90 as a model system. The assay, based on the use of malachite green for the measurement of inorganic phosphate, was used to test the HSP90 inhibitory activity of the compounds of the Examples herein.
Malachite Green ATPase Assay
Chemicals are of the highest purity commercially available and all aqueous solutions are made up in AR water. Because of the need to minimise contamination with inorganic phosphate, precautions should be taken with solutions and apparatus used in the assays. Glassware and pH meters are rinsed with double distilled or deionised water before use and, wherever possible, plastic ware should be used. Gloves are worn for all procedures. • (1) Greiner 384-well (Greiner 781101) or Costar 384-well flat-bottomed polystyrene multiwell plates (VWR). • (2) Assay buffer of (a) 100 mM Tris-HCl, pH 7.4, (b) 150 mM KCl, (c) 6 mM MgCl2. Stored at room temperature. • (3) 0.0812% (w/v) malachite green (M 9636, Sigma Aldrich Ltd., Poole, UK). Stored at room temperature. • (4) 2.32% (w/v) polyvinyl alcohol USP (P 1097, Sigma Aldrich Ltd, Poole, UK) in boiling water (see Comment 1), allowed to cool, and stored at room temperature. • (5) 5.72% (w/v) ammonium molybdate in 6 M hydrochloric acid. Stored at room temperature. • (6) 34% (w/v) sodium citrate. Stored at room temperature. • (7) 100 mM ATP, disodium salt, special quality (47699, Sigma Aldrich). Stored at −20° C. • (8) E. coli expressed yeast HSP90 protein, purified >95% (see, e.g., Panaretou et al., 1998) and stored in 50 uL aliquots at −80° C.
Method • 1. Dilute test compounds to 500 μM in AR water (DMSO concentration will be 2.5%). Transfer 2.5 μl of these compounds directly from the daughter plate to the assay plate, giving a final assay concentration of 100 μM. To obtain 12 point IC50 values, perform serial dilutions 1:2 to produce a range of assay concentrations from 100 μM to 97.6 nM (2.5% DMSO), and transfer 2.5 μl of each concentration into the assay plate. Column 1 in the assay plate contains no compound, as a negative control. An additional row with no compound is also used as a background. • 2. Prepare ATP by diluting 100 mM stock to 925 μM with assay buffer, and aliquot 5 μl of diluted ATP to each well including controls (final assay concentration 370 μM). • 3. Add 5 μl of buffer to background row. • 4. Dilute enzyme preparation to 1.05 μM with assay buffer, and aliquot 5 μl into each compound well and to the negative control column. • 5. Collect the reagents to the bottom of the well, cover plate with plate seal and incubate overnight at 37 degC. • 6. First thing in the morning prepare the Malachite Green Reagent. Add 2 parts of Malachite Green Solution, 1 part of Polyvinyl Alcohol Solution, 1 part of Ammonium Molybdate Solution, and 2 parts of AR water. • 7. Invert to mix, and leave for approximately 1 hour until the colour turns from brown to golden yellow. • 8. Add 40 μl of Malachite Green Reagent to each well, allow 5 mins for colour to develop. • 9. Add 5 μl of Sodium Citrate Reagent to each well (see comment 2) • 10. Re-cover with plate seal and shake on plate shaker for at least 15 mins. • 11. Measure Absorbance at 620 nm using a suitable plate reader (e.g. Victor, Perkin Elmer Life Sciences, Milton Keynes, UK).
Comments • (1) The polyvinyl alcohol dissolves in boiling water with difficulty and stirring for 2-3 h is required. • (2) The time interval between addition of the malachite green reagent and the sodium citrate should be kept as short as possible in order to reduce the non-enzymatic hydrolysis of ATP. Once the sodium citrate is added, the colour is stable for up to 4 h at room temperature. • (3) Compounds can be added to the assay plates using a Biomek FX Robot (Beckman Coulter).

T1 sequence (P02829 whole entry): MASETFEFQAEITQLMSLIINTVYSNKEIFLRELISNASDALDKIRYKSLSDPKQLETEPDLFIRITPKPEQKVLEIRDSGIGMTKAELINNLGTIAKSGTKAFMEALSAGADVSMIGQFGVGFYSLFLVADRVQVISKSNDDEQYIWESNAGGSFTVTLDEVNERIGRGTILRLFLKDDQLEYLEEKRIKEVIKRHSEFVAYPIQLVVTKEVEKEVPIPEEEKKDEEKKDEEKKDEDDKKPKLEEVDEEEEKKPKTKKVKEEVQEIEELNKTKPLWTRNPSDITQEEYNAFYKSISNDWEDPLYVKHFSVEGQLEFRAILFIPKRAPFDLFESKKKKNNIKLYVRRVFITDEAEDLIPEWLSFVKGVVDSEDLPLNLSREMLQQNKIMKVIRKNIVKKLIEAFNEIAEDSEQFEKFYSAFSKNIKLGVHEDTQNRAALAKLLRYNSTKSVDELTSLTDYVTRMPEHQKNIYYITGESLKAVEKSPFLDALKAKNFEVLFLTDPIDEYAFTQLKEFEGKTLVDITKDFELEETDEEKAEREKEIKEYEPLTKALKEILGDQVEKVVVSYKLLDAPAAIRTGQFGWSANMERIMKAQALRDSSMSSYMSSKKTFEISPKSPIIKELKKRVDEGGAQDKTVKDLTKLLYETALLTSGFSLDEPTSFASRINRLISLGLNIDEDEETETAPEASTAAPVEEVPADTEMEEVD

| SMILES | IC50 |
| --- | --- |
| CC(C)(C)OC(=O)N1CCN(c2c[nH]nc2-c2cc(Cl)c(O)cc2O)CC1 [Example 1, 4-[3-(5-Chloro-2,4-dihydroxy-phenyl)-1H-pyrazol-4-yl]-piperazine-1-carboxylic acid tert-butyl ester] | > 50 µM |
| Oc1cc(O)c(-c2n[nH]cc2N2CCOCC2)cc1Cl [Example 3] | > 50 µM |
| CN1CCN(c2c[nH]nc2-c2cc(Cl)c(O)cc2O)CC1 [Example 4] | < 50 µM |
| Oc1cc(O)c(-c2n[nH]cc2N2CCN(Cc3ccco3)CC2)cc1Cl [Example 5, 4-Chloro-6-[4-(4-furan-2-ylmethyl-piperazin-1-yl)-1H-pyrazol-3-yl]-benzene-1,3-diol] | > 50 µM |
| CCN1CCN(c2c[nH]nc2-c2cc(Cl)c(O)cc2O)CC1 [Example 6] | < 50 µM |
| Oc1cc(O)c(-c2n[nH]cc2N2CCN(Cc3cccnc3)CC2)cc1Cl [Example 7] | < 50 µM |
| NNC(=O)CN1CCN(c2c[nH]nc2-c2cc(Cl)c(O)cc2O)CC1 [Example 8, {4-[3-(5-Chloro-2,4-dihydroxy-phenyl)-1H-pyrazol-4-yl]-piperazin-1-yl}-acetic acid hydrazide] | > 50 µM |
| OCCN1CCN(c2c[nH]nc2-c2cc(Cl)c(O)cc2O)CC1 [Example 9, 4-Chloro-6-{4-[4-(2-hydroxy-ethyl)-piperazin-1-yl]-1H-pyrazol-3-yl}-benzene-1,3-diol] | > 50 µM |
| N#CCN1CCN(c2c[nH]nc2-c2cc(Cl)c(O)cc2O)CC1 [Example 10] | > 50 µM |
| N#CCOc1cc(O)c(-c2n[nH]cc2N2CCN(CC#N)CC2)cc1Cl [Example 11] | > 50 µM |
| N#CCCCN1CCN(c2c[nH]nc2-c2cc(Cl)c(O)cc2O)CC1 [Example 13] | < 50 µM |
| COCCN1CCN(c2c[nH]nc2-c2cc(Cl)c(O)cc2O)CC1 [Example 14] | < 50 µM |
| COC(=O)c1ccc(CN2CCN(c3c[nH]nc3-c3cc(Cl)c(O)cc3O)CC2)o1 [Example 15] | < 50 µM |
| COC(=O)c1cccc(CN2CCN(c3c[nH]nc3-c3cc(Cl)c(O)cc3O)CC2)c1 [Example 16] | < 50 µM |
| Oc1cc(O)c(-c2n[nH]cc2N2CCN(Cc3ncon3)CC2)cc1Cl [Example 17] | < 50 µM |
| Oc1cc(O)c(-c2n[nH]cc2N2CCN(Cc3ccc(Cl)cc3)CC2)cc1Cl [Example 18] | < 50 µM |
| N#Cc1cccc(CN2CCN(c3c[nH]nc3-c3cc(Cl)c(O)cc3O)CC2)c1 [Example 19] | < 50 µM |
| NC(=O)CN1CCN(c2c[nH]nc2-c2cc(Cl)c(O)cc2O)CC1 [Example 20] | < 50 µM |
| COC(=O)c1ccc(CN2CCN(c3c[nH]nc3-c3cc(Cl)c(O)cc3O)CC2)cc1 [Example 21] | < 50 µM |
| N#Cc1ccc(CN2CCN(c3c[nH]nc3-c3cc(Cl)c(O)cc3O)CC2)cc1 [Example 22] | < 50 µM |

| SMILES | IC50 |
| --- | --- |
| N#Cc1ccccc1CN1CCN(c2c[nH]nc2-c2cc(Cl)c(O)cc2O)CC1 [Example 23] | < 50 µM |
| NC(=O)c1cccc(CN2CCN(c3c[nH]nc3-c3cc(Cl)c(O)cc3O)CC2)c1 [Example 25] | < 50 µM |
| COc1ccc(CN2CCN(c3c[nH]nc3-c3cc(Cl)c(O)cc3O)CC2)cc1 [Example 26] | < 50 µM |
| C#CC[N+]1(CC#C)CCN(c2c[nH]nc2-c2cc(Cl)c(O)cc2O)CC1 [Example 27] | < 50 µM |
| O=C(O)c1ccc(CN2CCN(c3c[nH]nc3-c3cc(Cl)c(O)cc3O)CC2)o1 [Example 28] | < 50 µM |
| O=C(O)c1cccc(CN2CCN(c3c[nH]nc3-c3cc(Cl)c(O)cc3O)CC2)c1 [Example 29] | < 50 µM |
| OCCCN1CCN(c2c[nH]nc2-c2cc(Cl)c(O)cc2O)CC1 [Example 30] | < 50 µM |
| Oc1cc(O)c(-c2n[nH]cc2N2CCN(Cc3ccccn3)CC2)cc1Cl [Example 31] | < 50 µM |
| COC(=O)c1ccc(C(=O)N2CCN(c3c[nH]nc3-c3cc(Cl)c(O)cc3O)CC2)cc1 [Example 32] | > 50 µM |
| Cn1c(CN2CCN(c3c[nH]nc3-c3cc(Cl)c(O)cc3O)CC2)nc2ccccc21 [Example 33] | > 50 µM |
| Oc1cc(O)c(-c2n[nH]cc2N2CCN(CCc3ccccc3)CC2)cc1Cl [Example 34] | < 50 µM |
| O=C(O)c1ccc(CN2CCN(c3c[nH]nc3-c3cc(Cl)c(O)cc3O)CC2)cc1 [Example 35] | < 50 µM |
| NC(=O)c1ccc(CN2CCN(c3c[nH]nc3-c3cc(Cl)c(O)cc3O)CC2)cc1 [Example 36] | < 50 µM |
| Cc1cc(NC(=O)c2ccc(CN3CCN(c4c[nH]nc4-c4cc(Cl)c(O)cc4O)CC3)cc2)no1 [Example 37] | < 50 µM |
| Oc1cc(O)c(-c2n[nH]cc2N2CCN(Cc3ccc(-c4cnns4)cc3)CC2)cc1Cl [Example 38] | < 50 µM |
| Oc1cc(O)c(-c2n[nH]cc2N2CCN(Cc3ccc(-n4cccn4)cc3)CC2)cc1Cl [Example 39] | < 50 µM |
| O=C(CN1CCN(c2c[nH]nc2-c2cc(Cl)c(O)cc2O)CC1)N1CCOCC1 [Example 40] | < 50 µM |
| CC(C)(C)OC(=O)CN1CCN(c2c[nH]nc2-c2cc(Cl)c(O)cc2O)CC1 [Example 41] | > 50 µM |
| CC(c1ccccc1)N1CCN(c2c[nH]nc2-c2cc(Cl)c(O)cc2O)CC1 (centres unmarked) [Example 43] | < 50 µM |
| CCNC(=O)c1[nH]nc(-c2cc(Cl)c(O)cc2O)c1N1CCNCC1 [Example 51, 5-(5-Chloro-2,4-dihydroxy-phenyl)-4-piperazin-1-yl-2H-pyrazole-3-carboxylic acid ethylamide] | < 50 µM |

| SMILES | IC50 |
| --- | --- |
| Oc1cc(F)ccc1-c1n[nH]cc1N1CCNCC1 [Example 52, 3-(4-Fluoro-2-hydroxyphenyl)-4-(piperazin-1-yl)-1H-pyrazole] | > 50 µM |
| Oc1cc(O)c(-c2n[nH]cc2N2CCNCC2)cc1Br [Example 55] | > 50 µM |
| Cn1ncc(N2CCNCC2)c1-c1cc(Br)c(O)cc1O [Example 56] | > 50 µM |
| Cn1cc(N2CCNCC2)c(-c2cc(Br)c(O)cc2O)n1 [Example 57] | > 50 µM |
| CCn1cc(N2CCNCC2)c(-c2cc(Br)c(O)cc2O)n1 [Example 59] | > 50 µM |
| CC(C)n1ncc(N2CCNCC2)c1-c1cc(Br)c(O)cc1O [Example 60] | > 50 µM |
| CC(C)n1cc(N2CCNCC2)c(-c2cc(Br)c(O)cc2O)n1 [Example 61] | > 50 µM |
| Oc1cc(O)c(-c2c(N3CCNCC3)cnn2Cc2ccccc2)cc1Br [Example 62] | > 50 µM |
| Oc1cc(O)c(-c2nn(Cc3ccccc3)cc2N2CCNCC2)cc1Br [Example 63] | > 50 µM |
| CCOC(=O)Cn1cc(N2CCNCC2)c(-c2cc(Br)c(O)cc2O)n1 [Example 64] | > 50 µM |
| Oc1cc(O)c(-c2n[nH]cc2N2CCNCC2)cc1CCc1ccc2c(c1)OCO2 [Example 65] | < 50 µM |
| Oc1cc(O)c(-c2n[nH]cc2N2CCNCC2)cc1CCc1cccc2c1OCO2 [Example 66] | < 50 µM |
| COc1ccc(OC)c(CCc2cc(-c3n[nH]cc3N3CCNCC3)c(O)cc2O)c1 [Example 67] | < 50 µM |
| Oc1cc(O)c(-c2n[nH]cc2N2CCNCC2)cc1CCc1ccccc1F [Example 68] | < 50 µM |
| Oc1cc(O)c(-c2n[nH]cc2N2CCNCC2)cc1CCc1cccc(F)c1 [Example 69] | < 50 µM |
| Oc1cc(O)c(-c2n[nH]cc2N2CCNCC2)cc1CCc1ccc(F)cc1 [Example 70] | < 50 µM |
| Cc1cccc(CCc2cc(-c3n[nH]cc3N3CCNCC3)c(O)cc2O)c1 [Example 71] | < 50 µM |
| Cc1ccc(CCc2cc(-c3n[nH]cc3N3CCNCC3)c(O)cc2O)cc1 [Example 72] | < 50 µM |
| Cc1ccc(CCc2cc(-c3n[nH]cc3N3CCNCC3)c(O)cc2O)c(C)c1 [Example 73] | < 50 µM |
